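Dose response: 5 concentrations. Exposure: 48 h. Format: 96-well plates. Endpoint: linear interpolation; highest concentration if not reached. The concentration for 50% growth inhibition is given as GI50. TGI marks complete inhibition of growth.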
What was measured:
Experiment in all cases: growth of human tumour cells (NCI), 48 h
786-0 renal = tested on: 786-0 renal
A498 renal = tested on: A498 renal
A549 NSCLC = tested on: A549 NSCLC
ACHN renal = tested on: ACHN renal
BT-549 breast = tested on: BT-549 breast
CAKI-1 renal = tested on: CAKI-1 renal
CCRF-CEM leukemia = tested on: CCRF-CEM leukemia
COLO 205 colon = tested on: COLO 205 colon
DU-145 prostate = tested on: DU-145 prostate
EKVX NSCLC = tested on: EKVX NSCLC
HCT-116 colon = tested on: HCT-116 colon
HCT-15 colon = tested on: HCT-15 colon
HL-60(TB) leukemia = tested on: HL-60(TB) leukemia
HOP-62 NSCLC = tested on: HOP-62 NSCLC
HS 578T breast = tested on: HS 578T breast
IGROV1 ovarian = tested on: IGROV1 ovarian
KM12 colon = tested on: KM12 colon
LOX IMVI melanoma = tested on: LOX IMVI melanoma
M14 melanoma = tested on: M14 melanoma
MALME-3M melanoma = tested on: MALME-3M melanoma
MDA-MB-231 breast = tested on: MDA-MB-231 breast
MDA-MB-435 = tested on: MDA-MB-435
MOLT-4 leukemia = tested on: MOLT-4 leukemia
NCI-H226 lung = tested on: NCI-H226 lung
NCI-H23 lung = tested on: NCI-H23 lung
NCI-H522 lung = tested on: NCI-H522 lung
NCI/ADR-RES ovarian = tested on: NCI/ADR-RES ovarian
OVCAR-4 ovarian = tested on: OVCAR-4 ovarian
OVCAR-5 ovarian = tested on: OVCAR-5 ovarian
OVCAR-8 ovarian = tested on: OVCAR-8 ovarian
PC-3 prostate = tested on: PC-3 prostate
RXF 393 renal = tested on: RXF 393 renal
SF-268 CNS = tested on: SF-268 CNS
SF-295 CNS = tested on: SF-295 CNS
SF-539 CNS = tested on: SF-539 CNS
SK-MEL-2 melanoma = tested on: SK-MEL-2 melanoma
SK-MEL-28 melanoma = tested on: SK-MEL-28 melanoma
SK-MEL-5 melanoma = tested on: SK-MEL-5 melanoma
SK-OV-3 ovarian = tested on: SK-OV-3 ovarian
SN12C renal = tested on: SN12C renal
SNB-19 CNS = tested on: SNB-19 CNS
SNB-75 CNS = tested on: SNB-75 CNS
SW-620 colon = tested on: SW-620 colon
T-47D breast = tested on: T-47D breast
TK-10 renal = tested on: TK-10 renal
U251 CNS = tested on: U251 CNS
UACC-257 melanoma = tested on: UACC-257 melanoma
UACC-62 melanoma = tested on: UACC-62 melanoma
UO-31 renal = tested on: UO-31 renal
HCC-2998 colon = tested on: HCC-2998 colon
HOP-92 NSCLC = tested on: HOP-92 NSCLC
HT29 colon = tested on: HT29 colon
K-562 leukemia = tested on: K-562 leukemia
MCF7 breast = tested on: MCF7 breast
NCI-H460 lung = tested on: NCI-H460 lung
OVCAR-3 ovarian = tested on: OVCAR-3 ovarian
RPMI-8226 leukemia = tested on: RPMI-8226 leukemia
SR leukemia = tested on: SR leukemia

With `C=CCCC(=O)N1CCC(C(=O)OCC)C1=O` (stereo not drawn) the TGI (786-0 renal) was > 100 µM, the TGI (A498 renal) was > 100 µM and the TGI (A549 NSCLC) was > 100 µM. The TGI (ACHN renal) was > 100 µM, the TGI (BT-549 breast) was > 100 µM and the TGI (CAKI-1 renal) was > 100 µM. For the same compound, the TGI (CCRF-CEM leukemia) was > 100 µM, the TGI (COLO 205 colon) was > 100 µM and the TGI (DU-145 prostate) was > 100 µM. The TGI (EKVX NSCLC) was > 100 µM, the TGI (HCT-116 colon) was > 100 µM and the TGI (HCT-15 colon) was > 100 µM. For the same compound, the TGI (HL-60(TB) leukemia) was > 100 µM, the TGI (HOP-62 NSCLC) was > 100 µM and the TGI (HS 578T breast) was > 100 µM. The TGI (IGROV1 ovarian) was > 100 µM, the TGI (KM12 colon) was > 100 µM and the TGI (LOX IMVI melanoma) was > 100 µM. The TGI (M14 melanoma) was > 100 µM, the TGI (MALME-3M melanoma) was > 100 µM and the TGI (MDA-MB-231 breast) was > 100 µM. The TGI (MDA-MB-435) was > 100 µM, the TGI (MOLT-4 leukemia) was > 100 µM and the TGI (NCI-H226 lung) was > 100 µM. For the same compound, the TGI (NCI-H23 lung) was > 100 µM, the TGI (NCI-H522 lung) was > 100 µM and the TGI (NCI/ADR-RES ovarian) was > 100 µM. For the same compound, the TGI (OVCAR-4 ovarian) was > 100 µM, the TGI (OVCAR-5 ovarian) was > 100 µM and the TGI (OVCAR-8 ovarian) was > 100 µM. For the same compound, the TGI (PC-3 prostate) was > 100 µM, the TGI (RXF 393 renal) was > 100 µM and the TGI (SF-268 CNS) was > 100 µM. For the same compound, the TGI (SF-295 CNS) was > 100 µM, the TGI (SF-539 CNS) was > 100 µM and the TGI (SK-MEL-2 melanoma) was > 100 µM. For the same compound, the TGI (SK-MEL-28 melanoma) was > 100 µM, the TGI (SK-MEL-5 melanoma) was > 100 µM and the TGI (SK-OV-3 ovarian) was > 100 µM. The TGI (SN12C renal) was > 100 µM, the TGI (SNB-19 CNS) was > 100 µM and the TGI (SNB-75 CNS) was > 100 µM. The TGI (SW-620 colon) was > 100 µM, the TGI (T-47D breast) was > 100 µM and the TGI (TK-10 renal) was > 100 µM. The TGI (U251 CNS) was > 100 µM, the TGI (UACC-257 melanoma) was > 100 µM and the TGI (UACC-62 melanoma) was > 100 µM. For the same compound, the TGI (UO-31 renal) was > 100 µM.

`O=c1ccc(N=Nc2ccccc2)ccc1Cl` was tested, and the GI50 (786-0 renal) was 3.83 µM, the TGI (786-0 renal) was 13.6 µM and the GI50 (A498 renal) was > 100 µM. For the same compound, the TGI (A498 renal) was > 100 µM, the GI50 (A549 NSCLC) was 17 µM and the TGI (A549 NSCLC) was 38.7 µM. The GI50 (ACHN renal) was 3.11 µM, the TGI (ACHN renal) was 10.2 µM and the GI50 (BT-549 breast) was 3.22 µM. The TGI (BT-549 breast) was 9.77 µM, the GI50 (CAKI-1 renal) was 13 µM and the TGI (CAKI-1 renal) was 25.8 µM. The GI50 (CCRF-CEM leukemia) was 1.39 µM, the TGI (CCRF-CEM leukemia) was 26.7 µM and the GI50 (COLO 205 colon) was 5.07 µM. It also gave a TGI (COLO 205 colon) of 18.4 µM, a GI50 (DU-145 prostate) of 15.5 µM and a TGI (DU-145 prostate) of 29 µM. It also gave a GI50 (EKVX NSCLC) of 11.5 µM, a TGI (EKVX NSCLC) of 29.1 µM and a GI50 (HCC-2998 colon) of 12.2 µM. It also gave a TGI (HCC-2998 colon) of 26.4 µM, a GI50 (HCT-116 colon) of 2.61 µM and a TGI (HCT-116 colon) of 9.49 µM. The GI50 (HCT-15 colon) was 2.53 µM, the TGI (HCT-15 colon) was 8.07 µM and the GI50 (HL-60(TB) leukemia) was 18.1 µM. For the same compound, the TGI (HL-60(TB) leukemia) was 87.1 µM, the GI50 (HOP-62 NSCLC) was 31.3 µM and the TGI (HOP-62 NSCLC) was > 100 µM. For the same compound, the GI50 (HOP-92 NSCLC) was 13.9 µM, the TGI (HOP-92 NSCLC) was 28.1 µM and the GI50 (HS 578T breast) was 21.4 µM. For the same compound, the TGI (HS 578T breast) was 62.7 µM, the GI50 (HT29 colon) was 5.62 µM and the TGI (HT29 colon) was 19.2 µM. It also gave a GI50 (IGROV1 ovarian) of 13.8 µM, a TGI (IGROV1 ovarian) of 27.4 µM and a GI50 (K-562 leukemia) of 1 µM. For the same compound, the TGI (K-562 leukemia) was > 100 µM, the GI50 (KM12 colon) was 12.7 µM and the TGI (KM12 colon) was 32.4 µM. For the same compound, the GI50 (LOX IMVI melanoma) was 2.24 µM, the TGI (LOX IMVI melanoma) was 6.74 µM and the GI50 (M14 melanoma) was 2.63 µM. The TGI (M14 melanoma) was 12.7 µM, the GI50 (MALME-3M melanoma) was 3.57 µM and the TGI (MALME-3M melanoma) was 12.4 µM. It also gave a GI50 (MCF7 breast) of 3.16 µM, a TGI (MCF7 breast) of 18 µM and a GI50 (MDA-MB-231 breast) of 9.01 µM. The TGI (MDA-MB-231 breast) was 21.2 µM, the GI50 (MDA-MB-435) was 14.8 µM and the TGI (MDA-MB-435) was 29.6 µM. For the same compound, the GI50 (MOLT-4 leukemia) was 0.749 µM, the TGI (MOLT-4 leukemia) was > 100 µM and the GI50 (NCI-H226 lung) was 19.6 µM. For the same compound, the TGI (NCI-H226 lung) was 66.1 µM, the GI50 (NCI-H23 lung) was 6.25 µM and the TGI (NCI-H23 lung) was 21.9 µM. The GI50 (NCI-H460 lung) was 15.4 µM, the TGI (NCI-H460 lung) was 37.7 µM and the GI50 (NCI-H522 lung) was 1.8 µM. The TGI (NCI-H522 lung) was 3.67 µM, the GI50 (OVCAR-3 ovarian) was 4.39 µM and the TGI (OVCAR-3 ovarian) was 15.6 µM. For the same compound, the GI50 (OVCAR-4 ovarian) was 12.8 µM, the TGI (OVCAR-4 ovarian) was 25.9 µM and the GI50 (OVCAR-5 ovarian) was 15.4 µM. It also gave a TGI (OVCAR-5 ovarian) of 29.3 µM, a GI50 (OVCAR-8 ovarian) of 3.49 µM and a TGI (OVCAR-8 ovarian) of 13.1 µM. It also gave a GI50 (PC-3 prostate) of 5.16 µM, a TGI (PC-3 prostate) of 18.7 µM and a GI50 (RPMI-8226 leukemia) of 3.76 µM. It also gave a TGI (RPMI-8226 leukemia) of 27.4 µM, a GI50 (RXF 393 renal) of 8.19 µM and a TGI (RXF 393 renal) of 22.1 µM. The GI50 (SF-268 CNS) was 18.8 µM, the TGI (SF-268 CNS) was 43.5 µM and the GI50 (SF-295 CNS) was 18.1 µM. It also gave a TGI (SF-295 CNS) of 46.6 µM, a GI50 (SF-539 CNS) of 5.9 µM and a TGI (SF-539 CNS) of 18.3 µM. The GI50 (SK-MEL-2 melanoma) was 13.9 µM, the TGI (SK-MEL-2 melanoma) was 29.8 µM and the GI50 (SK-MEL-28 melanoma) was 14.5 µM. For the same compound, the TGI (SK-MEL-28 melanoma) was 27.9 µM, the GI50 (SK-MEL-5 melanoma) was 15.7 µM and the TGI (SK-MEL-5 melanoma) was 31.7 µM. For the same compound, the GI50 (SK-OV-3 ovarian) was 48 µM, the TGI (SK-OV-3 ovarian) was > 100 µM and the GI50 (SN12C renal) was 12.9 µM. The TGI (SN12C renal) was 25.7 µM, the GI50 (SNB-19 CNS) was 26.2 µM and the TGI (SNB-19 CNS) was 91.4 µM. For the same compound, the GI50 (SNB-75 CNS) was 15.9 µM, the TGI (SNB-75 CNS) was 92.3 µM and the GI50 (SR leukemia) was 1.73 µM. The TGI (SR leukemia) was > 100 µM, the GI50 (SW-620 colon) was 3.14 µM and the TGI (SW-620 colon) was 12.8 µM. For the same compound, the GI50 (T-47D breast) was 3.14 µM, the TGI (T-47D breast) was 26.4 µM and the GI50 (TK-10 renal) was 13.7 µM. It also gave a TGI (TK-10 renal) of 26.6 µM, a GI50 (U251 CNS) of 2.78 µM and a TGI (U251 CNS) of 9.29 µM. It also gave a GI50 (UACC-257 melanoma) of 11.5 µM, a TGI (UACC-257 melanoma) of 24 µM and a GI50 (UACC-62 melanoma) of 12.7 µM. The TGI (UACC-62 melanoma) was 25.6 µM, the GI50 (UO-31 renal) was 7.39 µM and the TGI (UO-31 renal) was 20.7 µM.

— PubChem BioAssay (NCI)
